Tested on: OVCAR-5 complex spheroids with HUVEC/MSC, viability, % test/control
Experiment: Anticancer human tumor OVCAR-5 cell line growth inhibition [AhR];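 note: spheroids exposed to compounds for 7 days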;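 for viability, T/C: 100% = DMSO vehicle control wells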
Conditions: for IC50: curve of first compound; for viability, T/C: stronger effect = lower value
Summary of the method: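 Complex tumor spheroids co-cultured with HUVEC and human MSC stroma; AhR antagonists tested in combination with standard-of-care and investigational agents. Top concentration at or near clinical Cmax (else 10 microM), half-log dilutions; growth expressed as percent test/control.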

[1] = second compound 0.1 µM, first compound 0.000949 µM
[2] = second compound 0.1 µM, first compound 0.003 µM
[3] = second compound 0.1 µM, first compound 0.00949 µM
[4] = second compound 0.1 µM, first compound 0.03 µM
[5] = second compound 0.1 µM, first compound 0.0949 µM
[6] = second compound 0.1 µM, first compound 0.3 µM
[7] = second compound 0.316 µM, first compound 0.000949 µM
[8] = second compound 0.316 µM, first compound 0.003 µM
[9] = second compound 0.316 µM, first compound 0.00949 µM
[10] = second compound 0.316 µM, first compound 0.03 µM
[11] = second compound 0.316 µM, first compound 0.0949 µM
[12] = second compound 0.316 µM, first compound 0.3 µM
[13] = second compound 1 µM, first compound 0.000949 µM
[14] = second compound 1 µM, first compound 0.003 µM
[15] = second compound 1 µM, first compound 0.00949 µM
[16] = second compound 1 µM, first compound 0.03 µM
[17] = second compound 1 µM, first compound 0.0949 µM
[18] = second compound 1 µM, first compound 0.3 µM
[19] = second compound 3.16 µM, first compound 0.000949 µM
[20] = second compound 3.16 µM, first compound 0.003 µM
[21] = second compound 3.16 µM, first compound 0.00949 µM
[22] = second compound 3.16 µM, first compound 0.03 µM
[23] = second compound 3.16 µM, first compound 0.0949 µM
[24] = second compound 3.16 µM, first compound 0.3 µM
[25] = second compound 10 µM, first compound 0.000949 µM
[26] = second compound 10 µM, first compound 0.003 µM
[27] = second compound 10 µM, first compound 0.00949 µM
[28] = second compound 10 µM, first compound 0.03 µM
[29] = second compound 10 µM, first compound 0.0949 µM
[30] = second compound 10 µM, first compound 0.3 µM

## CC(C)CC(NC(=O)C(Cc1ccccc1)NC(=O)c1cnccn1)B(O)O (stereo not given) + Cc1ccccc1N=Nc1ccc(NC(=O)c2ccnn2C)c(C)c1
Second compound 0.1 µM
  IC50: 49.4 nM
Second compound 0.316 µM
  IC50: 48.2 nM
Second compound 1 µM
  IC50: 50 nM
Second compound 3.16 µM
  IC50: 48.2 nM
Second compound 10 µM
  IC50: 55.4 nM
[1]
  viability, T/C: 101%
[2]
  viability, T/C: 105%
[3]
  viability, T/C: 96.9%
[4]
  viability, T/C: 69%
[5]
  viability, T/C: 25%
[6]
  viability, T/C: 19.3%
[7]
  viability, T/C: 104%
[8]
  viability, T/C: 108%
[9]
  viability, T/C: 98.7%
[10]
  viability, T/C: 67.1%
[11]
  viability, T/C: 25.7%
[12]
  viability, T/C: 17.6%
[13]
  viability, T/C: 108%
[14]
  viability, T/C: 112%
[15]
  viability, T/C: 101%
[16]
  viability, T/C: 69.4%
[17]
  viability, T/C: 25.5%
[18]
  viability, T/C: 19.6%
[19]
  viability, T/C: 111%
[20]
  viability, T/C: 112%
[21]
  viability, T/C: 105%
[22]
  viability, T/C: 66.1%
[23]
  viability, T/C: 26.9%
[24]
  viability, T/C: 21.5%
[25]
  viability, T/C: 98.9%
[26]
  viability, T/C: 105%
[27]
  viability, T/C: 93.6%
[28]
  viability, T/C: 73.2%
[29]
  viability, T/C: 29.3%
[30]
  viability, T/C: 23.5%

## CCc1c2c(nc3ccc(O)cc13)-c1cc3c(c(=O)n1C2)COC(=O)[C@]3(O)CC + Cc1ccccc1N=Nc1ccc(NC(=O)c2ccnn2C)c(C)c1
Second compound 0.1 µM
  IC50: 6.95 nM
Second compound 0.316 µM
  IC50: 8.2 nM
Second compound 1 µM
  IC50: 9.43 nM
Second compound 3.16 µM
  IC50: 9.46 nM
Second compound 10 µM
  IC50: 10.5 nM
[1]
  viability, T/C: 85.7%
[2]
  viability, T/C: 64.3%
[3]
  viability, T/C: 37.1%
[4]
  viability, T/C: 36.9%
[5]
  viability, T/C: 22.5%
[6]
  viability, T/C: 7.67%
[7]
  viability, T/C: 87.4%
[8]
  viability, T/C: 70.3%
[9]
  viability, T/C: 39.2%
[10]
  viability, T/C: 37%
[11]
  viability, T/C: 18.7%
[12]
  viability, T/C: 6.8%
[13]
  viability, T/C: 91.3%
[14]
  viability, T/C: 73.4%
[15]
  viability, T/C: 40.8%
[16]
  viability, T/C: 38.3%
[17]
  viability, T/C: 20.9%
[18]
  viability, T/C: 7.02%
[19]
  viability, T/C: 95.9%
[20]
  viability, T/C: 70.7%
[21]
  viability, T/C: 45.4%
[22]
  viability, T/C: 38.1%
[23]
  viability, T/C: 18.4%
[24]
  viability, T/C: 7.44%
[25]
  viability, T/C: 89.5%
[26]
  viability, T/C: 65.9%
[27]
  viability, T/C: 45.9%
[28]
  viability, T/C: 42.1%
[29]
  viability, T/C: 21.5%
[30]
  viability, T/C: 8.22%

## COc1cc(Nc2ncc3c(n2)-c2ccc(Cl)cc2C(c2c(F)cccc2OC)=NC3)ccc1C(=O)O + Cc1ccccc1N=Nc1ccc(NC(=O)c2ccnn2C)c(C)c1
Second compound 0.1 µM
  IC50: 2340 nM
Second compound 0.316 µM
  IC50: 2970 nM
Second compound 1 µM
  IC50: 4990 nM
Second compound 3.16 µM
  IC50: 6140 nM
Second compound 10 µM
  IC50: 6340 nM
Second compound 0.1 µM, first compound 0.0316 µM
  viability, T/C: 89.5%
Second compound 0.1 µM, first compound 0.1 µM
  viability, T/C: 81.7%
Second compound 0.1 µM, first compound 0.316 µM
  viability, T/C: 60.2%
Second compound 0.1 µM, first compound 1 µM
  viability, T/C: 57.2%
Second compound 0.1 µM, first compound 3.16 µM
  viability, T/C: 50.3%
Second compound 0.1 µM, first compound 10 µM
  viability, T/C: 42%
Second compound 0.316 µM, first compound 0.0316 µM
  viability, T/C: 89.4%
Second compound 0.316 µM, first compound 0.1 µM
  viability, T/C: 86.8%
Second compound 0.316 µM, first compound 0.316 µM
  viability, T/C: 64.2%
Second compound 0.316 µM, first compound 1 µM
  viability, T/C: 59.5%
Second compound 0.316 µM, first compound 3.16 µM
  viability, T/C: 52.3%
Second compound 0.316 µM, first compound 10 µM
  viability, T/C: 41.7%
Second compound 1 µM, first compound 0.0316 µM
  viability, T/C: 91.2%
Second compound 1 µM, first compound 0.1 µM
  viability, T/C: 87.8%
Second compound 1 µM, first compound 0.316 µM
  viability, T/C: 68.5%
Second compound 1 µM, first compound 1 µM
  viability, T/C: 64.4%
Second compound 1 µM, first compound 3.16 µM
  viability, T/C: 55.4%
Second compound 1 µM, first compound 10 µM
  viability, T/C: 43.7%
Second compound 3.16 µM, first compound 0.0316 µM
  viability, T/C: 97.6%
Second compound 3.16 µM, first compound 0.1 µM
  viability, T/C: 91.3%
Second compound 3.16 µM, first compound 0.316 µM
  viability, T/C: 74.8%
Second compound 3.16 µM, first compound 1 µM
  viability, T/C: 68.1%
Second compound 3.16 µM, first compound 3.16 µM
  viability, T/C: 54.5%
Second compound 3.16 µM, first compound 10 µM
  viability, T/C: 46.2%
Second compound 10 µM, first compound 0.0316 µM
  viability, T/C: 93.3%
Second compound 10 µM, first compound 0.1 µM
  viability, T/C: 86.4%
Second compound 10 µM, first compound 0.316 µM
  viability, T/C: 74.2%
Second compound 10 µM, first compound 1 µM
  viability, T/C: 67.2%
Second compound 10 µM, first compound 3.16 µM
  viability, T/C: 54.7%
Second compound 10 µM, first compound 10 µM
  viability, T/C: 46.6%
